In PubChem BioAssay (NCI):
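Exposure lasted 48 hours, with cells grown in 96-well plates and compounds tested at five concentrations. Here, GI50 denotes the concentration required for 50% inhibition of growth. Definition used: TGI = concentration required for complete inhibition of growth.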

Tests used:
Experiment in all cases: inhibition of tumour cell growth, NCI panel, 48 h
786-0 renal = test system: 786-0 renal
A498 renal = test system: A498 renal
A549 NSCLC = test system: A549 NSCLC
ACHN renal = test system: ACHN renal
BT-549 breast = test system: BT-549 breast
CAKI-1 renal = test system: CAKI-1 renal
CCRF-CEM leukemia = test system: CCRF-CEM leukemia
COLO 205 colon = test system: COLO 205 colon
DU-145 prostate = test system: DU-145 prostate
EKVX NSCLC = test system: EKVX NSCLC
HCC-2998 colon = test system: HCC-2998 colon
HCT-116 colon = test system: HCT-116 colon
HCT-15 colon = test system: HCT-15 colon
HL-60(TB) leukemia = test system: HL-60(TB) leukemia
HOP-62 NSCLC = test system: HOP-62 NSCLC
HOP-92 NSCLC = test system: HOP-92 NSCLC
HS 578T breast = test system: HS 578T breast
HT29 colon = test system: HT29 colon
IGROV1 ovarian = test system: IGROV1 ovarian
K-562 leukemia = test system: K-562 leukemia
KM12 colon = test system: KM12 colon
LOX IMVI melanoma = test system: LOX IMVI melanoma
M14 melanoma = test system: M14 melanoma
MALME-3M melanoma = test system: MALME-3M melanoma
MCF7 breast = test system: MCF7 breast
MDA-MB-231 breast = test system: MDA-MB-231 breast
MDA-MB-435 = test system: MDA-MB-435
MOLT-4 leukemia = test system: MOLT-4 leukemia
NCI-H226 lung = test system: NCI-H226 lung
NCI-H23 lung = test system: NCI-H23 lung
NCI-H460 lung = test system: NCI-H460 lung
NCI-H522 lung = test system: NCI-H522 lung
NCI/ADR-RES ovarian = test system: NCI/ADR-RES ovarian
OVCAR-3 ovarian = test system: OVCAR-3 ovarian
OVCAR-4 ovarian = test system: OVCAR-4 ovarian
OVCAR-5 ovarian = test system: OVCAR-5 ovarian
OVCAR-8 ovarian = test system: OVCAR-8 ovarian
PC-3 prostate = test system: PC-3 prostate
RPMI-8226 leukemia = test system: RPMI-8226 leukemia
RXF 393 renal = test system: RXF 393 renal
SF-268 CNS = test system: SF-268 CNS
SF-295 CNS = test system: SF-295 CNS
SF-539 CNS = test system: SF-539 CNS
SK-MEL-2 melanoma = test system: SK-MEL-2 melanoma
SK-MEL-5 melanoma = test system: SK-MEL-5 melanoma
SK-OV-3 ovarian = test system: SK-OV-3 ovarian
SN12C renal = test system: SN12C renal
SNB-19 CNS = test system: SNB-19 CNS
SNB-75 CNS = test system: SNB-75 CNS
SR leukemia = test system: SR leukemia
SW-620 colon = test system: SW-620 colon
T-47D breast = test system: T-47D breast
TK-10 renal = test system: TK-10 renal
U251 CNS = test system: U251 CNS
UACC-257 melanoma = test system: UACC-257 melanoma
UACC-62 melanoma = test system: UACC-62 melanoma
UO-31 renal = test system: UO-31 renal

CCCCCCCCn1ccc2cc(NC(=O)Cn3cc(CN4CCC(C)CC4)nn3)ccc21
GI50 (786-0 renal): 1480 nM
TGI (786-0 renal): 2810 nM
GI50 (A498 renal): 1600 nM
TGI (A498 renal): 3270 nM
GI50 (A549 NSCLC): 1740 nM
TGI (A549 NSCLC): 3400 nM
GI50 (ACHN renal): 1630 nM
TGI (ACHN renal): 2990 nM
GI50 (BT-549 breast): 1530 nM
TGI (BT-549 breast): 3010 nM
GI50 (CAKI-1 renal): 1670 nM
TGI (CAKI-1 renal): 3150 nM
GI50 (CCRF-CEM leukemia): 2500 nM
TGI (CCRF-CEM leukemia): 9710 nM
GI50 (COLO 205 colon): 1820 nM
TGI (COLO 205 colon): 3460 nM
GI50 (DU-145 prostate): 1940 nM
TGI (DU-145 prostate): 3900 nM
GI50 (EKVX NSCLC): 1670 nM
TGI (EKVX NSCLC): 3660 nM
GI50 (HCC-2998 colon): 1740 nM
TGI (HCC-2998 colon): 3240 nM
GI50 (HCT-116 colon): 1570 nM
TGI (HCT-116 colon): 2930 nM
GI50 (HCT-15 colon): 1610 nM
TGI (HCT-15 colon): 3150 nM
GI50 (HL-60(TB) leukemia): 1770 nM
TGI (HL-60(TB) leukemia): 3580 nM
GI50 (HOP-62 NSCLC): 1760 nM
TGI (HOP-62 NSCLC): 3400 nM
GI50 (HOP-92 NSCLC): 1160 nM
TGI (HOP-92 NSCLC): 2570 nM
GI50 (HS 578T breast): 1600 nM
TGI (HS 578T breast): 4120 nM
GI50 (HT29 colon): 1730 nM
TGI (HT29 colon): 3320 nM
GI50 (IGROV1 ovarian): 1430 nM
TGI (IGROV1 ovarian): 2960 nM
GI50 (K-562 leukemia): 1610 nM
TGI (K-562 leukemia): 3510 nM
GI50 (KM12 colon): 1810 nM
TGI (KM12 colon): 3390 nM
GI50 (LOX IMVI melanoma): 1640 nM
TGI (LOX IMVI melanoma): 3050 nM
GI50 (M14 melanoma): 1630 nM
TGI (M14 melanoma): 3080 nM
GI50 (MALME-3M melanoma): 1660 nM
TGI (MALME-3M melanoma): 3120 nM
GI50 (MCF7 breast): 1650 nM
TGI (MCF7 breast): 3250 nM
GI50 (MDA-MB-231 breast): 1710 nM
TGI (MDA-MB-231 breast): 3240 nM
GI50 (MDA-MB-435): 1650 nM
TGI (MDA-MB-435): 3080 nM
GI50 (MOLT-4 leukemia): 2020 nM
TGI (MOLT-4 leukemia): 5550 nM
GI50 (NCI-H226 lung): 1750 nM
TGI (NCI-H226 lung): 3830 nM
GI50 (NCI-H23 lung): 2040 nM
TGI (NCI-H23 lung): 4340 nM
GI50 (NCI-H460 lung): 1700 nM
TGI (NCI-H460 lung): 3220 nM
GI50 (NCI-H522 lung): 1730 nM
TGI (NCI-H522 lung): 3480 nM
GI50 (NCI/ADR-RES ovarian): 1920 nM
TGI (NCI/ADR-RES ovarian): 3990 nM
GI50 (OVCAR-3 ovarian): 1710 nM
TGI (OVCAR-3 ovarian): 3190 nM
GI50 (OVCAR-4 ovarian): 2070 nM
TGI (OVCAR-4 ovarian): 4850 nM
GI50 (OVCAR-5 ovarian): 1630 nM
TGI (OVCAR-5 ovarian): 3420 nM
GI50 (OVCAR-8 ovarian): 1860 nM
TGI (OVCAR-8 ovarian): 3810 nM
GI50 (PC-3 prostate): 1730 nM
TGI (PC-3 prostate): 3680 nM
GI50 (RPMI-8226 leukemia): 2060 nM
TGI (RPMI-8226 leukemia): 4820 nM
GI50 (RXF 393 renal): 1500 nM
TGI (RXF 393 renal): 3080 nM
GI50 (SF-268 CNS): 1820 nM
TGI (SF-268 CNS): 3530 nM
GI50 (SF-295 CNS): 1860 nM
TGI (SF-295 CNS): 3500 nM
GI50 (SF-539 CNS): 1700 nM
TGI (SF-539 CNS): 3080 nM
GI50 (SK-MEL-2 melanoma): 1850 nM
TGI (SK-MEL-2 melanoma): 3530 nM
GI50 (SK-MEL-5 melanoma): 1720 nM
TGI (SK-MEL-5 melanoma): 3090 nM
GI50 (SK-OV-3 ovarian): 1900 nM
TGI (SK-OV-3 ovarian): 3700 nM
GI50 (SN12C renal): 1680 nM
TGI (SN12C renal): 3160 nM
GI50 (SNB-19 CNS): 1760 nM
TGI (SNB-19 CNS): 3420 nM
GI50 (SNB-75 CNS): 1480 nM
TGI (SNB-75 CNS): 2820 nM
GI50 (SR leukemia): 1900 nM
TGI (SR leukemia): 5240 nM
GI50 (SW-620 colon): 1770 nM
TGI (SW-620 colon): 3460 nM
GI50 (T-47D breast): 1760 nM
TGI (T-47D breast): 4080 nM
GI50 (TK-10 renal): 1700 nM
TGI (TK-10 renal): 3210 nM
GI50 (U251 CNS): 1700 nM
TGI (U251 CNS): 3150 nM
GI50 (UACC-257 melanoma): 1700 nM
TGI (UACC-257 melanoma): 3350 nM
GI50 (UACC-62 melanoma): 1880 nM
TGI (UACC-62 melanoma): 3370 nM
GI50 (UO-31 renal): 1440 nM
TGI (UO-31 renal): 2740 nM
